Experimental findings from patent publication US10077241B2 (Janssen Pharmaceutica NV, priority 2014, dated 2018) are described below.

For orientation: EC50 means the concentration at which the effect is half-maximal. A lower EC50 goes with a more potent agent.

The target of assay [1] is T1, TGR5 (NCI-H716 cell line) (Homo sapiens, UniProt Q8TDU6).
T1 sequence (Q8TDU6 1-330): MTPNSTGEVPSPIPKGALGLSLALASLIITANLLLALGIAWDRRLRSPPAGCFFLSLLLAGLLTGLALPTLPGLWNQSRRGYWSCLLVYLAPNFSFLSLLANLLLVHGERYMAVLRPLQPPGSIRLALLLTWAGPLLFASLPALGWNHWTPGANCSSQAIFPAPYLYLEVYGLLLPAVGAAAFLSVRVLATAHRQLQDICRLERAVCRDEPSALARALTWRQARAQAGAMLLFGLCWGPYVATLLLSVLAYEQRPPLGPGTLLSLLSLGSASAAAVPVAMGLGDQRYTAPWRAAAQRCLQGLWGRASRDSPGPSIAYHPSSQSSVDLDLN
The assay can be described thus: NCI-H716 cAMP Agonist EC50 Determination.

The next assay concerns the target T2, TGR5 (STC1 cell line) (Mus musculus, UniProt Q80SS6).
T2 sequence (Q80SS6 1-329): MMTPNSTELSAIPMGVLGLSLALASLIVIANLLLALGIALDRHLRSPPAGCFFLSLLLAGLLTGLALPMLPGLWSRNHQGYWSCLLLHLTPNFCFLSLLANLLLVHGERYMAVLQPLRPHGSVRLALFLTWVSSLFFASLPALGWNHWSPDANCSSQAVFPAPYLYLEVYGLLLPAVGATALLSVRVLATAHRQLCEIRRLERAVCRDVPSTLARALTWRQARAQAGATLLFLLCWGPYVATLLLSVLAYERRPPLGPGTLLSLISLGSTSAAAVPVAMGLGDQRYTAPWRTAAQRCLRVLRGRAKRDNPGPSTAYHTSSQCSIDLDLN
The assay can be described thus: STC1 cAMP Agonist EC50 Determination.

Procedure for TGR5 (STC1 cell line): Cell stocks were maintained and grown in a sub-confluent state using standard cell culture procedures. The day before the experiment, the cells were harvested with non-enzymatic cell dissociation buffer and resuspended in complete growth media at 4E5 c/ml. […] The seeded plates were incubated overnight at 37° C.
On the day of the experiment, Assay Buffer containing: HBSS with Ca^2+and Mg^2+; 5 μM HEPES; 0.1% BSA; and, 0.5 μM IBMX was prepared. The growth medium was washed from the cell plates and replaced with 20 μL of Assay Buffer. […] The reaction was stopped by the addition of 20 μL 0.1% Formic Acid to all wells. Sixty minutes later 30 μL 3 M deuterated AMP was added to all wells (as a control for volume addition to the mass spec). Plates were mixed on a plate shaker for 1 min and centrifugated (5 min 3000 RPMs no brakes).
Plates were run on a 4000 QTrap triple-quadrapole Mass spectrometer in positive ion mode coupled with a Biocius RapidFire 300is. […] Two ions (cAMP and deuterated AMP were measured using Multiple Reaction Monitoring (MRM) in positive ion mode and the area under the curve (AUC) was determined for each of the ions.
The data from the Mass Spec/Rapid Plate AUC for cAMP and deuterated AMP were imported to an Excel worksheet. A Normalized signal (NS) was generated for each well=(cAMP AUC for the well/deut AMP AUC for the well)*average deut AMP AUC for the plate). nM cAMP was calculated for each well from the cAMP standard curves located on each plate by first calculating the slope and deriving the intercept (b).
EC50 values were determined from a 4-point fit (Hill equation) of a single 11-point compound dosing.

Turning to `COc1cc(C2(C)CCCc3nc(SCc4c(F)cc(C(=O)NCCOCCOCCOCCO)cc4F)n(-c4ccc(F)cc4)c32)ccc1Cl` (stereo not drawn) [Example 84, 4-((7-(4-chloro-3-methoxyphenyl)-1-(4-fluorophenyl)-7-methyl-4,5,6,7-tetrahydro-1H-benzo[d]imidazol-2-ylthio)methyl)-3,5-difluoro-N-(2-(2-(2-(2-hydroxyethoxy)ethoxy)ethoxy)ethyl)benzamide trifluoroacetic acid], the concentration giving a half-maximal response (EC50) in assay [1] was determined as 38.7 µM; on TGR5 (STC1 cell line), 0.34 µM.

In the case of `COc1cc(C2(C)CCCc3nc(SCc4ncncc4Cl)n(-c4ccc(F)cc4)c32)ccc1Cl` (stereo not drawn) [Example 86, 7-(4-chloro-3-methoxyphenyl)-2-((5-chloropyrimidin-4-yl)methylthio)-1-(4-fluorophenyl)-7-methyl-4,5,6,7-tetrahydro-1H-benzo[d]imidazole trifluoroacetic acid], the EC50 is 27.1 µM in assay [1] and 2.22 µM at TGR5 (STC1 cell line).

In the case of `COc1cc(C2(C)CCCc3nc(SCc4ccccc4)n(-c4ccc(F)cc4)c32)ccc1Cl` (stereo not drawn) [Example 87, 2-(benzylsulfanyl)-7-(4-chloro-3-methoxyphenyl)-1-(4-fluorophenyl)-7-methyl-4,5,6,7-tetrahydro-1H-1,3-benzodiazole], the results for the EC50 (in assay [1]; on TGR5 (STC1 cell line)) were more than 50 µM and 47.8 µM, respectively.

With `COc1cc(C2(C)CCCc3nc(SCc4ccncc4)n(-c4ccc(F)cc4)c32)ccc1Cl` (stereo not drawn) [Example 88], the EC50 in assay [1] was more than 50 µM; at TGR5 (STC1 cell line), 4.78 µM.

Turning to `COc1cc(C2(C)CCCc3nc(SCc4c(F)cc(C#N)cc4F)n(-c4ccc(F)cc4)c32)ccc1Cl` (stereo not drawn) [Example 89, 4-((7-(4-chloro-3-methoxyphenyl)-1-(4-fluorophenyl)-7-methyl-4,5,6,7-tetrahydro-1H-benzo[d]imidazol-2-ylthio)methyl)-3,5-difluorobenzonitrile trifluoroacetic acid], the EC50 in assay [1] is more than 50 µM; at TGR5 (STC1 cell line), 2.08 µM.

Take `COc1cc(C2(C)CCCc3nc(SCc4c(F)cc(-c5nn[nH]n5)cc4F)n(-c4ccc(F)cc4)c32)ccc1Cl` (stereo not drawn) [Example 90, 7-(4-chloro-3-methoxyphenyl)-2-(2,6-difluoro-4-(2H-tetrazol-5-yl)benzylthio)-1-(4-fluorophenyl)-7-methyl-4,5,6,7-tetrahydro-1H-benzo[d]imidazole trifluoroacetic acid]: the EC50 is more than 50 µM in assay [1] and 3.9 µM on TGR5 (STC1 cell line).

For the molecule `CNC(=O)c1cc(F)c(CSc2nc3c(n2-c2ccc(F)cc2)C(C)(c2ccc(Cl)c(OC)c2)CCC3)c(F)c1` (stereo not drawn) [Example 91, 4-((7-(4-chloro-3-methoxyphenyl)-1-(4-fluorophenyl)-7-methyl-4,5,6,7-tetrahydro-1H-benzo[d]imidazol-2-ylthio)methyl)-3,5-difluoro-N-methylbenzamide trifluoroacetic acid], the EC50 in assay [1] was more than 50 µM; at TGR5 (STC1 cell line), 0.23 µM.

With `COc1cc(C2(C)CCCc3nc(SCc4c(F)cc(C(=O)N(C)C)cc4F)n(-c4ccc(F)cc4)c32)ccc1Cl` (stereo not drawn) [Example 92, 4-([[7-(4-chloro-3-methoxyphenyl)-1-(4-fluorophenyl)-7-methyl-4,5,6,7-tetrahydro-1H-1,3-benzodiazol-2-yl]sulfanyl]methyl)-3,5-difluoro-N,N-dimethylbenzamide], the EC50 in assay [1] was 18.1 µM; on TGR5 (STC1 cell line), 0.12 µM.

`COc1cc(C2(C)CCCc3nc(SCc4c(F)cc(C(=O)N5CCOCC5)cc4F)n(-c4ccc(F)cc4)c32)ccc1Cl` (stereo not drawn) [Example 93, 7-(4-chloro-3-methoxyphenyl)-2-[([2,6-difluoro-4-[(morpholin-4-yl)carbonyl]phenyl]methyl)sulfanyl]-1-(4-fluorophenyl)-7-methyl-4,5,6,7-tetrahydro-1H-1,3-benzodiazole]: the values for the EC50 (in assay [1]; on TGR5 (STC1 cell line)) were more than 50 µM and 0.25 µM, respectively.

For the molecule `COc1cc(C2(C)CCCc3nc(SCc4c(F)cc(C(=O)NCCO)cc4F)n(-c4ccc(F)cc4)c32)ccc1Cl` (stereo not drawn) [Example 94, 4-((7-(4-chloro-3-methoxyphenyl)-1-(4-fluorophenyl)-7-methyl-4,5,6,7-tetrahydro-1H-benzo[d]imidazol-2-ylthio)methyl)-3,5-difluoro-N-(2-hydroxyethyl)benzamide trifluoroacetic acid], the EC50 in assay [1] is more than 50 µM; at TGR5 (STC1 cell line), 0.41 µM.

With `COc1cc(C2(C)CCCc3nc(SCc4c(F)ccc(O)c4F)n(-c4ccc(F)cc4)c32)ccc1Cl` (stereo not drawn) [Example 95, 3-((7-(4-chloro-3-methoxyphenyl)-1-(4-fluorophenyl)-7-methyl-4,5,6,7-tetrahydro-1H-benzo[d]imidazol-2-ylthio)methyl)-2,4-difluorophenol trifluoroacetic acid], the results for the EC50 (in assay [1]; at TGR5 (STC1 cell line)) were 12.5 µM and 0.37 µM, respectively.

For the molecule `COc1cc(C2(C)CCCc3nc(SCc4c(F)ccc(OCCN(C)C)c4F)n(-c4ccc(F)cc4)c32)ccc1Cl` (stereo not drawn) [Example 96, 2-(3-((7-(4-chloro-3-methoxyphenyl)-1-(4-fluorophenyl)-7-methyl-4,5,6,7-tetrahydro-1H-benzo[d]imidazol-2-ylthio)methyl)-2,4-difluorophenoxy)-N,N-dimethylethanamine trifluoroacetic acid], the EC50 in assay [1] was more than 50 µM; at TGR5 (STC1 cell line), 13.4 µM.

In the case of `COc1cc(C2(C)CCCc3nc(SCc4c(F)cncc4F)n(-c4ccc(F)cc4)c32)ccc1Cl` (stereo not drawn) [Example 98, 2-((3,5-difluoropyridin-4-yl)methylthio)-7-(4-chloro-3-methoxyphenyl)-1-(4-fluorophenyl)-4,5,6,7-tetrahydro-7-methyl-1H-benzo[d]imidazole trifluoroacetic acid], the EC50 worked out at 24.3 µM in assay [1] and 0.16 µM at TGR5 (STC1 cell line).

On to `COc1ccc(C2(C)CCCc3nc(SCc4ccccc4)n(-c4ccc(F)cc4)c32)cc1OC` (stereo not drawn) [Example 99, 2-(benzylthio)-7-(3,4-dimethoxyphenyl)-1-(4-fluorophenyl)-7-methyl-4,5,6,7-tetrahydro-1H-benzo[d]imidazole], for which the EC50 in assay [1] turned out to be 33.1 µM; on TGR5 (STC1 cell line) it was 2.39 µM.

`COc1ccc(C2(C)CCCc3nc(SCc4c(F)cc(C#N)cc4F)n(-c4ccc(F)cc4)c32)cc1OC` (stereo not drawn) [Example 102, 4-(((7-(3,4-dimethoxyphenyl)-1-(4-fluorophenyl)-7-methyl-4,5,6,7-tetrahydro-1H-benzo[d]imidazol-2-yl)thio)methyl)-3,5-difluorobenzonitrile]: the EC50 is 1.37 µM in assay [1] and 0.03 µM on TGR5 (STC1 cell line).

For `COc1ccc(C2(C)CCCc3nc(SCc4c(F)cc(C(N)=O)cc4F)n(-c4ccc(F)cc4)c32)cc1OC` (stereo not drawn) [Example 104, 4-(((7-(3,4-dimethoxyphenyl)-1-(4-fluorophenyl)-7-methyl-4,5,6,7-tetrahydro-1H-benzo[d]imidazol-2-yl)thio)methyl)-3,5-difluorobenzamide], the EC50 in assay [1] stood at 0.9 µM; on TGR5 (STC1 cell line), 0.17 µM.

With `COc1ccc(C2(C)CCCc3nc(SCc4c(F)cc(OCCCl)cc4F)n(-c4ccc(F)cc4)c32)cc1OC` (stereo not drawn) [Example 107, 2-((4-(2-chloroethoxy)-2,6-difluorobenzyl)thio)-7-(3,4-dimethoxyphenyl)-1-(4-fluorophenyl)-7-methyl-4,5,6,7-tetrahydro-1H-benzo[d]imidazole], the values for the EC50 (in assay [1]; at TGR5 (STC1 cell line)) were 1.4 µM and 0.32 µM, respectively.

With `COc1ccc(C2(C)CCCc3nc(SCc4c(F)cc(OCCN(C)C)cc4F)n(-c4ccc(F)cc4)c32)cc1OC` (stereo not drawn) [Example 108, 2-(4-(((7-(3,4-dimethoxyphenyl)-1-(4-fluorophenyl)-7-methyl-4,5,6,7-tetrahydro-1H-benzo[d]imidazol-2-yl)thio)methyl)-3,5-difluorophenoxy)-N,N-dimethylethanamine], the concentration giving a half-maximal response (EC50) came out at 0.68 µM in assay [1] and 0.31 µM on TGR5 (STC1 cell line).

For `COc1ccc(C2(C)CCCc3nc(SCc4c(F)cc(Br)cc4F)n(-c4ccc(F)cc4)c32)cc1OC` (stereo not drawn) [Example 109, 2-((4-bromo-2,6-difluorobenzyl)thio)-7-(3,4-dimethoxyphenyl)-1-(4-fluorophenyl)-7-methyl-4,5,6,7-tetrahydro-1H-benzo[d]imidazole], the EC50 in assay [1] came to 3.6 µM; on TGR5 (STC1 cell line) it was 0.2 µM.

Take `CCO/C=C/c1cc(F)c(CSc2nc3c(n2-c2ccc(F)cc2)C(C)(c2ccc(OC)c(OC)c2)CCC3)c(F)c1` (stereo not drawn) [Example 110, (E)-7-(3,4-dimethoxyphenyl)-2-((4-(2-ethoxyvinyl)-2,6-difluorobenzyl)thio)-1-(4-fluorophenyl)-7-methyl-4,5,6,7-tetrahydro-1H-benzo[d]imidazole]: the EC50 was 1.18 µM in assay [1] and 0.45 µM on TGR5 (STC1 cell line).

With `COc1ccc(C2(C)CCCc3nc(SCc4c(F)cc(CCN(C)C)cc4F)n(-c4ccc(F)cc4)c32)cc1OC` (stereo not drawn) [Example 111, 2-(4-(((7-(3,4-dimethoxyphenyl)-1-(4-fluorophenyl)-7-methyl-4,5,6,7-tetrahydro-1H-benzo[d]imidazol-2-yl)thio)methyl)-3,5-difluorophenyl)-N,N-dimethylethanamine], the EC50 in assay [1] amounted to 1.41 µM; on TGR5 (STC1 cell line), 0.2 µM.
